Experimental findings from patent publication US6545030B1, “1-heterocycle substituted diarylamines” (Warner-Lambert Company, priority 1999, dated 2003) are described below.

Counter-ions that a name gives are not always drawn.

The compound `Cc1cc(I)ccc1Nc1ccc(Cl)cc1C1=NC(C)(C)CO1` (as salt: salt) [Example 1, [4-Chloro-2-(4,4-Dimethyl-4,5-dihydro-oxazol-2-yl)-phenyl]-(4-iodo-2-methyl-phenyl)-amine] gave a melting point of 324 to 330 °C. `Cc1cc(I)ccc1Nc1c(-c2nnco2)ccc(F)c1F` [Example 9, (2,3-Difluoro-6-[1,3,4]oxadiazol-2-yl-phenyl)-(4-iodo-2-methyl-phenyl)-amine] gave a melting point of 144.4 to 145.5 °C. Turning to `Cc1cc(I)ccc1Nc1c(-c2nnc(S)o2)ccc(F)c1F` [Example 10, 5-[3,4-Difluoro-2-(4-iodo-2-methyl-phenylamino)-phenyl]-[1,3,4]oxadiazole-2-thiol], the melting point fell in the range of 231.8 to 232.8 °C.
